Consider 3 compounds from patent EP0983763A1, “PREVENTIVES FOR RECONSTRICTION” (TAISHO PHARMACEUTICAL CO. LTD, priority 1997, dated 1998).

The term inhibition denotes the percentage by which the read-out fell short of the control.

Assay [1] deals with intimal thickening. Description: Inhibiting activity on intimal thickening in a model for vascular endothelial injury in normal rabbits (balloon catheter injury of right common carotid artery). The following applies: for Level of intimal thickening I/M: 1 week before and 2 weeks after endothelium injury, Means ± S.E., control 0.251±0.030. Type of assay: in vivo, NZW strain male rabbits. The method, then:
(§1) As test animals were used a group of 5 NZW strain male rabbits of 2 months (available from Kitayama RABES K.K.) After a drug was administered to rabbits for 1 week, a balloon catheter for removing arterial embolus (Fogarty catheter, E-060-2F, available from Baxter Co., Inc.) was inserted into the right common carotid artery via the right external carotid artery of the rabbits under anesthesia with pentobarbital. The right common carotid artery was abraded three times with the balloon swollen (a balloon pressure of 0.5-1.0 atm) to produce a model for the injured vascular endothelium. The drug was administered for 2 weeks after the endothelium injury, and then the artery was excised and fixed with 10% neutral buffered formalin to prepare a slice of the arterial ring tissue. Elastic fiber-stained tissue preparations were prepared by Elastic Van Gieson (EVG) staining. Areas of the intima (I) and of the medium (M) were measured by means of an image analysis system (Adobe Photoshop, Unitimage for the Apple Macintosh) and a ratio of both values (I/M) was calculated to determine a level of intimal thickening.
The drug was given in admixture with a rabbit feed RC-4 (available from Oriental Kobo K.K.) at the concentration of 0.0003% and a dose was calculated from the amount of feed ingested and the body weight.

Assay [2] has as its system intimal thickening. The assay is described as follows: Inhibiting activity on intimal thickening in a model for vascular endothelial injury in WHHL rabbits (balloon catheter injury of right common carotid artery). Type of assay: in vivo, WHHL strain male rabbits. The settings on record: for Level of intimal thickening I/M: 4 weeks after endothelium injury, Means ± S.E., control 1.00±0.23.
Description: as §1, with “of 4 homozygous hereditary hyperlipemic WHHL” for “of 5 NZW”, “K.K.) A” for “K.K.) After a drug was administered to rabbits for 1 week, a”, “for 4” for “for 2”, “thickening. A total blood cholesterol level was measured according to an enzyme method (Autosera CHO-2, Daiichi Kagaku Yakuhin K.K.) using an autoanalyzer (Hitachi 7150 type).” for “thickening.”
(§2) The drug was given in admixture with a rabbit feed RC-4 (available from Oriental Kobo K.K.) at the concentrations of 0.0003% and of 0.003%, and then a dose was calculated from the amount of feed ingested and the body weight.

A short description of assay [3]: Total blood cholesterol level by enzyme method in the WHHL rabbit endothelial injury model. Type of assay: in vivo, WHHL strain male rabbits. The settings on record: WHHL rabbits, 4 weeks after endothelium injury, Means ± S.E., control 841±44.
Description: as §1, with “of 4 homozygous hereditary hyperlipemic WHHL” for “of 5 NZW”, “K.K.) A” for “K.K.) After a drug was administered to rabbits for 1 week, a”, “for 4” for “for 2”, “thickening. A total blood cholesterol level was measured according to an enzyme method (Autosera CHO-2, Daiichi Kagaku Yakuhin K.K.) using an autoanalyzer (Hitachi 7150 type).” for “thickening.”
as §2

In another assay the test system is smooth muscle cells. The assay is described as follows: Histopathological observation of the thickened intima after injury of the blood vessel. Type of assay: in vivo. The following applies: histopathologically observed; model and dose not stated.

SMILES strings stand for the structures.

`CCCCCCCCCCCCCCSCC(=O)Nc1c(C(C)C)cccc1C(C)C` [Compound of the invention]: the “Level of intimal thickening I/M” value worked out at 0.126±0.028 in the assay on intimal thickening [1] (0.2 mg/kg (0.0003% in feed)), 0.45±0.19 in the assay on intimal thickening [2] (0.2 mg/kg (0.0003% in feed)) and 0.38±0.05 in the assay on intimal thickening [2] (2.0 mg/kg (0.003% in feed)). In addition, the inhibition at 0.2 mg/kg was 49.8% with intimal thickening [1] (Oryctolagus cuniculus, feed or water, 0.2 mg/kg (0.0003% in feed), from I/M ratio vs control group) and 55% in the assay with intimal thickening [2] (Oryctolagus cuniculus, 0.2 mg/kg, from I/M ratio vs control group). Moreover, in the assay with intimal thickening [2] (Oryctolagus cuniculus, 2.0 mg/kg, from I/M ratio vs control group), the inhibition at 2 mg/kg was 62%. The figures for the Total blood cholesterol in assay [3] (0.2 mg/kg (0.0003% in feed)) and in assay [3] (2.0 mg/kg (0.003% in feed)) were 861 ± 83 mg/dL and 907 ± 48 mg/dL, respectively. In addition, the “number of smooth muscle cells during the proliferation period in the thickened intima” value with smooth muscle cells is reported as “decrease the number of smooth muscle cells”.

`CC(C)(Sc1cc(C(C)(C)C)c(O)c(C(C)(C)C)c1)Sc1cc(C(C)(C)C)c(O)c(C(C)(C)C)c1` [Probucol, probucol, reference compound]: in the assay with intimal thickening [2] (190 mg/kg (0.35% in feed)), the “Level of intimal thickening I/M” value amounted to 0.43±0.08. Further, the inhibition at 190 mg/kg in the assay on intimal thickening [2] (Oryctolagus cuniculus, 190 mg/kg, from I/M ratio vs control group) came out at 57%. Further, in assay [3] (190 mg/kg (0.35% in feed)), the Total blood cholesterol is 723 ± 44 mg/dL.

Turning to `COc1ccc(/C=C/C(=O)Nc2ccccc2C(=O)O)cc1OC` [Tranilast, tranilast, reference compound], the “Level of intimal thickening I/M” value with intimal thickening [1] (100 mg/kg (0.167% in feed)) stood at 0.184±0.051. Besides, in the assay with intimal thickening [1] (Oryctolagus cuniculus, feed or water, 100 mg/kg (0.167% in feed), from I/M ratio vs control group), the inhibition at 100 mg/kg is 26.6%.
